In the supplement of paper PMC10307832:

How the values were obtained:
Assay in all cases: relative viability (nuclei count vs DMSO), 5 days (fraction); higher = more cells survive
[1] = compound: C1=CC2=NC=CN=C2C=C1/C=C/3\C(=O)NC(=O)S3 + COc1cccc2cc(-c3nc([C@H]4CC[C@H](C(=O)O)CC4)n4ncnc(N)c34)[nH]c12 [OSI-027] (partner 0.5 µM)
Summary of the method: (§1)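 Relative viability divides the nuclei count in treated wells by that in vehicle wells. Lung cancer cell lines were seeded in 1536-well plates, dosed by pin tool the next day, and fixed and stained after 5 days in one step with final 0.05% Triton X-100, 1% formaldehyde and 1 ug/ml Hoechst. Dosing was a single drug or a fixed anchor-drug dose plus five library-drug doses (not always all listed) in √10 steps, and values are medians of duplicate plates imaged at 4×.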

[2] = compound: C1=CC2=NC=CN=C2C=C1/C=C/3\C(=O)NC(=O)S3 + C[C@@H](Oc1cc(-c2cnn(C3CCNCC3)c2)cnc1N)c1c(Cl)ccc(F)c1Cl [Crizotinib] (partner 1 µM)
Summary of the method: as §1

[3] = compound: C1=CC2=NC=CN=C2C=C1/C=C/3\C(=O)NC(=O)S3 + Nc1ncn([C@H]2C[C@H](O)[C@@H](CO)O2)c(=O)n1 [Decitabine] (partner 2 µM)
Summary of the method: as §1

[4] = compound: CCN1CCN(c2ccc(Nc3cc(N(C)C(=O)Nc4c(Cl)c(OC)cc(OC)c4Cl)ncn3)cc2)CC1 [BGJ398] + COc1cccc2cc(-c3nc([C@H]4CC[C@H](C(=O)O)CC4)n4ncnc(N)c34)[nH]c12 [OSI-027] (partner 0.5 µM)
Summary of the method: as §1

| Cell Line | relative viability ([1]; first compound 0.02 µM) | relative viability ([1]; first compound 0.06325 µM) | relative viability ([1]; first compound 0.2 µM) | relative viability ([1]; first compound 0.6325 µM) | relative viability ([1]; first compound 2 µM) | relative viability ([2]; first compound 0.02 µM) | relative viability ([2]; first compound 0.06325 µM) | relative viability ([2]; first compound 0.2 µM) | relative viability ([2]; first compound 0.6325 µM) | relative viability ([2]; first compound 2 µM) | relative viability ([3]; first compound 0.02 µM) | relative viability ([3]; first compound 0.06325 µM) | relative viability ([3]; first compound 0.2 µM) | relative viability ([3]; first compound 0.6325 µM) | relative viability ([3]; first compound 2 µM) | relative viability ([4]; first compound 0.01 µM) | relative viability ([4]; first compound 0.03162 µM) | relative viability ([4]; first compound 0.1 µM) | relative viability ([4]; first compound 0.3162 µM) | relative viability ([4]; first compound 1 µM) |
| --- | --- | --- | --- | --- | --- | --- | --- | --- | --- | --- | --- | --- | --- | --- | --- | --- | --- | --- | --- | --- |
| NCI-H838 | 0.448 | 0.437 | 0.438 | 0.399 | 0.226 | 0.778 | 1.12 | 0.737 | 0.751 | 0.823 | 0.429 | 0.46 | 0.415 | 0.481 | 0.39 | 0.297 | 0.357 | 0.376 | 0.338 | 0.294 |
| NCI-H1755 | 0.712 | 0.838 | 0.71 | 0.699 | 0.575 | 0.747 | 0.786 | 0.86 | 0.863 | 0.817 | 0.74 | 0.628 | 0.729 | 0.689 | 0.685 | 0.598 | 0.852 | 0.749 | 0.779 | 0.698 |
| HCC-78 | 0.362 | 0.408 | 0.352 | 0.347 | 0.279 | 0.341 | 0.309 | 0.296 | 0.337 | 0.25 | 0.703 | 0.578 | 0.668 | 0.594 | 0.525 | 0.369 | 0.348 | 0.346 | 0.349 | 0.366 |
| IA-LM | – | – | – | – | – | 0.654 | – | 0.857 | 0.998 | 0.718 | – | – | – | – | – | – | – | – | – | – |
| NCI-H322M | 0.546 | 0.478 | 0.497 | 0.53 | 0.384 | 0.858 | 0.778 | 1.1 | 0.823 | 0.943 | 0.693 | 0.776 | 0.798 | 0.665 | 0.692 | 0.531 | 0.542 | 0.627 | 0.495 | 0.501 |
| NCI-H3122 | 0.935 | 1.16 | 0.89 | 1.03 | 0.46 | 0.298 | 0.253 | 0.277 | 0.265 | 0.203 | 0.434 | 0.431 | 0.468 | 0.459 | 0.403 | 0.91 | 1 | 0.941 | 1 | 1.05 |
| COR-L23 | 0.781 | 0.898 | 0.873 | 0.74 | 0.497 | 0.65 | 0.649 | 0.576 | 0.582 | 0.699 | 0.481 | 0.466 | 0.445 | 0.414 | 0.369 | 0.787 | 0.88 | 0.848 | 0.667 | 0.8 |
| NCI-H2087 | 0.42 | 0.523 | 0.615 | 0.574 | 0.37 | 0.849 | 0.954 | 0.707 | 0.804 | 0.8 | 0.355 | 0.255 | 0.256 | 0.253 | 0.267 | 0.359 | 0.639 | 0.587 | 0.63 | 0.546 |
| LC-2-ad | 0.893 | 0.752 | 0.807 | 0.757 | 0.454 | 0.412 | 0.363 | 0.402 | 0.44 | 0.715 | 0.781 | 0.862 | 0.84 | 0.86 | 0.727 | 0.763 | 0.935 | 0.832 | 0.779 | 0.829 |
| NCI-H1915 | 0.679 | 0.71 | 0.727 | 0.674 | 0.603 | 0.861 | 0.934 | 0.918 | 0.859 | 0.894 | 0.238 | 0.281 | 0.28 | 0.252 | 0.281 | 0.59 | 0.614 | 0.62 | 0.582 | 0.687 |
| NCI-H1793 | 0.28 | 0.201 | 0.289 | 0.265 | 0.203 | – | – | – | – | – | 0.417 | 0.391 | 0.559 | 0.447 | 0.552 | 0.326 | 0.309 | 0.241 | 0.229 | 0.243 |
| NCI-H2023 | 0.423 | 0.346 | 0.478 | 0.326 | 0.161 | 0.707 | 0.693 | 0.608 | 0.61 | 0.613 | 0.205 | 0.237 | 0.205 | 0.195 | 0.222 | 0.364 | 0.462 | 0.46 | 0.41 | 0.395 |
| NCI-H522 | 0.706 | 0.763 | 0.675 | 0.717 | 0.562 | – | – | – | – | – | 0.643 | 0.706 | 0.594 | 0.74 | 0.683 | 0.686 | 0.608 | 0.575 | 0.664 | 0.687 |
| NCI-H1299 | – | – | – | – | – | 0.955 | 1.03 | 0.932 | 0.89 | 0.986 | – | – | – | – | – | – | – | – | – | – |
| NCI-H1648 | 0.238 | – | 0.313 | 0.246 | 0.261 | – | – | – | – | – | 0.33 | 0.549 | 0.57 | – | 0.539 | 0.245 | 0.292 | 0.246 | 0.26 | 0.235 |
| NCI-H2342 | 0.506 | 0.682 | 0.628 | 0.632 | 0.535 | – | – | – | – | – | 0.726 | 0.664 | 0.805 | 0.69 | 0.716 | 0.694 | 0.628 | 0.629 | 0.674 | 0.622 |
| SW 900 | 0.635 | 0.499 | 0.602 | 0.608 | 0.504 | – | – | – | – | – | 0.418 | 0.356 | 0.515 | – | 0.433 | 0.602 | 0.604 | 0.545 | 0.368 | 0.358 |
| NCI-H1395 | 0.667 | 0.64 | 0.738 | 0.588 | 0.583 | – | – | – | – | – | 0.637 | 0.693 | 0.74 | 0.703 | 0.651 | 0.621 | 0.649 | 0.551 | 0.448 | 0.497 |
| A549 | – | – | – | – | – | 0.791 | 0.901 | 0.782 | 0.671 | 0.646 | 0.292 | 0.245 | 0.297 | 0.273 | 0.293 | – | – | – | – | – |
| NCI-H1563 | 0.834 | 0.823 | 0.76 | 0.734 | 0.65 | 0.842 | 0.898 | 0.86 | 0.861 | 0.831 | – | – | – | – | – | 0.703 | 0.788 | 0.785 | 0.672 | 0.665 |
